Measurements: patent publication US4336192A, “5,6-Dihydro-11-alkylene-morphanthridin-6-ones” (BASF Aktiengesellschaft, priority 1979, dated 1982)
Entries after “also recorded” stand apart in the source; their conditions may differ. Structures can show the parent of a compound that is named as a salt. Where two headings read alike, the source gives them in different places.

Tests used:
Acute toxicity = details: mouse, in vivo, ip, read-out: Toxicity LD 50
Procedure: The substances are administered intraperitoneally to groups of 5-10 female NMRI mice.

female NMRI mice [1] = test: Anti-cholinergic effect: protection against death from Physostigmin; format: in vivo; details: for ED50: Mus musculus, read-out: Anti-cholinergic effect ED 50%, oral, 30 min before Physostigmin 0.825 mg/kg s.c., female NMRI mice, dose which protects 50% of animals against death; for Anti-cholinergic effect (in words): result in words, Physostigmin antagonism; for Anti-cholinergic effect R.A. (relative activity): Clozapin = 1.00
Procedure: 3. Anti-cholinergic effect
A lethal dose (0.825 mg/kg) of Physostigmin is administered subcutaneously to groups of 10 female NMRI mice. The test substances are administered orally 30 minutes before administering the Physostigmin.

female NMRI mice [2] = test: Analgesic effect: D'amour and Smith tail-flick method; format: in vivo; details: for Analgesic effect (in words): result in words
Procedure: The analgesic effect is determined by means of the D'amour and Smith (1941) tail-flick method. In this, the substances are administered intraperitoneally to groups of 10 female NMRI mice. The pain reaction is triggered 30 minutes after administration. The reaction time, until the tail is flicked out of the way after exposure to a focused light beam, is measured.

female NMRI mice [3] = test: Sedative effect: orientation hypermotility in a new environment, measured photoelectrically; format: in vivo; details: for ED50: Mus musculus, 0.5 h, read-out: Sedative effect ED 50%, oral, female NMRI mice, dose which reduces orientation hypermotility by 50% vs untreated controls, 30 min after administration; for Sedative effect (in words): result in words
Procedure: The substances are administered orally to groups of 4×3 or 8×3 female NMRI mice. The orientation hypermotility induced by a new environment is determined photoelectrically, 30 minutes after the administration of the substances, for a period of 30 minutes.

[4] = test system: female Sprague-Dawley rats; test: Apomorphine-antagonistic effect: apomorphine-triggered jaw motions (mandibulogram); format: in vivo; details: for ED50: Rattus norvegicus, sc, read-out: Apomorphine antagonism ED 50%, female Sprague-Dawley rats, 1.5 mg of apomorphine/kg s.c., dose which reduces number of jaw movements by 50%; for Apomorphine-antagonistic effect (in words): result in words
Procedure: 4. Apomorphine-antagonistic effect
Jaw motions are triggered in groups of 4-6 female Sprague-Dawley rats by subcutaneous administration of 1.5 mg of apomorphine/kg, and are recorded by means of implanted electrodes (KUBACKI mandibulogram, 1978).

[5] = intraperitoneal, female NMRI mice, dose which causes death of 50% of animals

SMILES | LD50 (Acute toxicity) | ED50 (female NMRI mice [1]) | Anti-cholinergic effect (in words) (female NMRI mice [1]) | Analgesic effect (in words) (female NMRI mice [2]) | ED50 (female NMRI mice [3]) | Sedative effect (in words) (female NMRI mice [3]) | ED50 [4] | Apomorphine-antagonistic effect (in words) [4] | LD50 (Acute toxicity; [5]) | Anti-cholinergic effect R.A. (relative activity) (female NMRI mice [1]) | Analgesic effect R.A. (relative activity) (female NMRI mice [2]; relative activity, Clozapin = 1.00) | Analgesic effect ED 100% (female NMRI mice [2]; intraperitoneal, female NMRI mice, dose which lengthens tail-flick reaction time by 100% vs control, 30 min after administration)
CN1CCN(C2=Nc3ccccc3C(=CC#N)c3ccccc32)CC1 (mixture of isomers) [Example 17 (cis-trans mixture), cis,trans-11-cyanomethylene-6-(4-methyl-piperazin-1-yl)-morphanthridine] | 121 mg/kg | 6.26 mg/kg | manifests itself especially; also recorded: more strongly sedative and anti-cholinergic | not analgesically active | 2.78 mg/kg | relatively strong sedative effects; also recorded: more strongly sedative | 22 mg/kg | somewhat weaker than that of Clozapin |  |  |  | 
Cc1ccc2c(c1)N=C(N1CCN(C)CC1)c1ccccc1C2=CC#N (mixture of isomers) [Example 30 (cis-trans mixture), cis,trans-3-Methyl-11-cyanomethylene-6-(4-methylpiperazin-1-yl)-morphanthridine] |  | 31.2 mg/kg | moderate anti-cholinergic effect | An analgesic effect is found; also recorded: stronger analgesic effect | 0.804 mg/kg | strong sedative effects; also recorded: high sedative activity (greater than that of Clozapin and Perlapin) | 35 mg/kg |  | 178 mg/kg | 0.45 |  | 
Cc1ccc2c(c1)C(=CC#N)c1ccccc1C(N1CCN(C)CC1)=N2 (mixture of isomers) [Example 31 (cis-trans mixture), cis,trans-2-Methyl-11-cyanomethylene-6-(4-methylpiperazin-1-yl)-morphanthridine] |  | 2.74 mg/kg | manifests itself especially |  | 3.35 mg/kg | relatively strong sedative effects | 42 mg/kg |  | 50 mg/kg |  |  | 
CCN1CCN(C2=Nc3ccccc3C(=CC#N)c3ccccc32)CC1 (mixture of isomers) [Example 36 (cis-trans mixture), cis,trans-11-Cyanomethylene-6-(4-ethyl-piperazin-1-yl)-morphanthridine] | 100 mg/kg | 7.8 mg/kg | manifests itself especially |  | 3.34 mg/kg | relatively strong sedative effects | 43 mg/kg |  |  |  |  | 
N#CC=C1c2ccccc2N=C(N2CCCNCC2)c2ccccc21 (mixture of isomers) [Example 37 (cis-trans mixture), cis,trans-11-Cyanomethylene-6-homopiperazin-1-yl-morphanthridine.HCl.H2 O] |  | 5.49 mg/kg | manifests itself especially |  | > 21.5 mg/kg |  | > 100 mg/kg |  | 69.8 mg/kg | 2.57 |  | 
N#CC=C1c2ccccc2N=C(NCCN2CCCCC2)c2ccccc21 (mixture of isomers) [Example 39 (cis-trans mixture), cis,trans-11-Cyanomethylene-6-(2-piperidin-1-ylethylamino)-morphanthridine.1/2H2 O] |  | > 10 mg/kg |  |  | 1.61 mg/kg | strong sedative effects | 46 mg/kg |  | 5.35 mg/kg | > 1.41 | > 0.21 | 
C[N+]1([O-])CCN(C2=Nc3ccccc3C(=CC#N)c3ccccc32)CC1 (mixture of isomers) [Example 44 (cis-trans mixture), cis,trans-11-Cyanomethylene-6-(4-methyl-4-oxy-piperazin-1-yl)-morphanthridine.2H2 O] |  | 1.98 mg/kg | manifests itself especially |  | 14.3 mg/kg |  | 85 mg/kg |  | 464 mg/kg | 7.12 |  | 
CN1CCN(C2=Nc3cc(Cl)ccc3Nc3ccccc32)CC1 [Clozapin, reference compound] |  | 14.1 mg/kg |  |  | 4.74 mg/kg |  | 8 mg/kg |  | 215 mg/kg | 1.00 |  | 
CN1CCN(C2=Nc3ccccc3/C(=C/C#N)c3ccccc32)CC1 [Example 17 (cis-isomer), cis 11-cyanomethylene-6-(4-methylpiperazin-1-yl)-morphanthridine] | 147 mg/kg | 17.4 mg/kg | relative to Clozapin, an approximately comparable anti-cholinergic effect |  | 1.98 mg/kg | strong sedative effects; also recorded: responsible for the sedative effect | 46 mg/kg | lower apomorphine-antagonistic effect |  |  |  | 
CN1CCN(C2=Nc3ccccc3/C(=C\C#N)c3ccccc32)CC1 [Example 17 (trans-isomer), trans-11-cyanomethylene-6-(4-methyl-piperazin-1-yl)-morphanthridine] |  | 4.7 mg/kg | manifests itself especially; also recorded: particularly exhibits an anti-cholinergic and apomorphine-antagonistic effect |  | > 21.5 mg/kg | very slight | 12 mg/kg | particularly exhibits an anti-cholinergic and apomorphine-antagonistic effect | 332 mg/kg |  |  | 
Cc1ccc2c(c1)N=C(N1CCN(C)CC1)c1ccccc1/C2=C\C#N [Example 30 (cis-isomer), cis-3-methyl-11-cyanomethylene-6-(4-methyl-piperazin-1-yl)-morphanthridine] | 287 mg/kg |  |  | substantially more active than Clozapin; also recorded: strong sedative and strong analgesic effects | 1.06 mg/kg | strong sedative and strong analgesic effects | 85 mg/kg | weaker apomorphine-antagonistic effect than that of Clozapin and Perlapin |  |  |  | 
Cc1ccc2c(c1)N=C(N1CCN(C)CC1)c1ccccc1/C2=C/C#N [Example 30 (trans-isomer), trans-3-methyl-11-cyanomethylene-6-(4-methylpiperazin-1-yl)-morphanthridine] |  | 12.3 mg/kg | stronger anti-cholinergic and apomorphine-antagonistic effect |  | 33.6 mg/kg | little or no sedative effect | 19 mg/kg | stronger anti-cholinergic and apomorphine-antagonistic effect | > 100 mg/kg |  |  | 
CCN1CCN(C2=Nc3ccccc3/C(=C\C#N)c3ccccc32)CC1 [Example 36 (trans-isomer), trans-11-cyanomethylene-6-(4-ethyl-piperazin-1-yl)-morphanthridine] |  | 5.6 mg/kg | manifests itself especially; also recorded: stronger anti-cholinergic and apomorphine-antagonistic effect |  | > 100 mg/kg | little or no sedative effect | 22 mg/kg | stronger anti-cholinergic and apomorphine-antagonistic effect | > 100 mg/kg |  |  | 
C[N+]1([O-])CCN(C2=Nc3ccccc3/C(=C/C#N)c3ccccc32)CC1 [Example 44 (cis-isomer), cis-11-cyanomethylene-6-(4-methyl-4-oxy-piperazin-1-yl)-morphanthridine] |  | 100 mg/kg |  |  | 17.6 mg/kg |  | > 100 mg/kg |  | 261 mg/kg | 0.14 |  | 
C[N+]1([O-])CCN(C2=Nc3ccccc3/C(=C\C#N)c3ccccc32)CC1 [Example 44 (trans-isomer), trans-11-cyanomethylene-6-(4-methyl-4-oxy-piperazin-1-yl)-morphanthridine] |  | 3.74 mg/kg | manifests itself especially; also recorded: stronger anti-cholinergic and apomorphine-antagonistic effect |  | 100 mg/kg | little or no sedative effect | 25 mg/kg | stronger anti-cholinergic and apomorphine-antagonistic effect | 559 mg/kg | 3.77 |  | 
CN1CCN(C2=Nc3ccccc3Cc3ccccc32)CC1 [Perlapin, reference compound] |  | > 21.5 mg/kg |  |  | 2.05 mg/kg |  | 22 mg/kg |  | 215 mg/kg | < 0.66 |  | > 21.5
